Experimental data as given in ChEMBL document CHEMBL6071165, “Design, synthesis and biological evaluation of plant-derived miliusol derivatives achieve TNBC profound regression in vivo” (Eur J Med Chem, 2024).
Calls of active or inactive are those of the source. The calls are words filed in the database; no cut-off is given here.

What was measured:
BT-549 [1] = assay: Antiproliferative activity against human BT-549 cells xenografted in female BALB/c mouse model assessed as increase in E-cadherin level at 5 to 20 mg/kg administered subcutaneously by immunohistochemical staining based microscopic analysis; format: functional, organism-based; conditions: dose 5-20 mg/kg, route sc
MDA-MB-231 [2] = assay: Induction of apoptosis in human MDA-MB-231 cells assessed as necrotic cells at 1 uM incubated for 24 hrs by Annexin V-PI staining based flow cytometric analysis (reference value: 1.29%); format: functional
MDA-MB-231 [3] = assay: Antiproliferative activity against human MDA-MB-231 cells xenografted in female BALB/c mouse model assessed as fold change in downregulation of MMP-2 protein level at 5 mg/kg administered subcutaneously incubated for 24 hrs by Western blot analysis (reference value: 1.00%); format: functional; conditions: route sc
BT-549 [4] = assay: Induction of apoptosis in human BT-549 cells assessed as upregulation of cleavage of PARP level at 0.5 to 2 uM incubated for 24 hrs by Western blot analysis; format: functional, cell-based; conditions: dose 0.5-2 µM
BT-549 [5] = assay: Inhibition of cell migration in human BT-549 cells assessed as decrease in SNAIL level at 1 uM incubated for 24 hrs by DAPI staining based immunofluorescence analysis; format: functional
BT-549 [6] = assay: Inhibition of glycolysis in human BT-549 cells assessed as decrease in PKM2 protein level at 0.5 to 2 uM incubated for 24 hrs by Western blot analysis; format: functional, cell-based; conditions: dose 0.5-2 µM
BT-549 [7] = assay: Antiproliferative activity against human BT-549 cells xenografted in female BALB/c mouse model assessed as as fold change in cleavage of caspase-3 level at 10 mg/kg administered subcutaneously incubated for 24 hrs by Western blot analysis (reference value: 1.00%); format: functional; conditions: route sc
MDA-MB-231 [8] = assay: Inhibition of tumor sphere formation in human MDA-MB-231 cells at 1 uM incubated for 24 hrs by microscopic analysis; format: functional, cell-based
BT-549 [9] = assay: Inhibition of DNA replication in human BT-549 cells assessed as reduction in EDU fluorescence intensity by EDU staining based fluorescence microscopic analysis; format: functional, cell-based; conditions: dose 0.5-2 µM
MDA-MB-231 [10] = assay: Antimetastatic activity against human MDA-MB-231-Luc cells xenografted in female BALB/C mouse assessed as reduction in metastasis speed at 20 mg/kg administered subcutaneously and measured for 16 days; format: functional, organism-based; conditions: route sc, time 16.0 day
BT-549 [11] = assay: Inhibition of glycolysis in human BT-549 cells assessed as decrease in LDHA protein level at 0.5 to 2 uM incubated for 24 hrs by Western blot analysis; format: functional, cell-based; conditions: dose 0.5-2 µM
MDA-MB-231 [12] = assay: Inhibition of cell migration in human MDA-MB-231 cells assessed as increase in E-cadherin level incubated for 24 hrs by Western blot analysis; format: functional, cell-based; conditions: dose 0.5-2 µM
BT-549 [13] = assay: Inhibition of glycolysis in human BT-549 cells assessed as reduction in glucose uptake at 0.5 to 2 uM incubated for 24 hrs followed by 2-NBDG staining based flow cytometric analysis; format: functional, cell-based; conditions: dose 0.5-2 µM
BT-549 [14] = assay: Induction of ER stress in human BT-549 cells assessed as increase in calcium ion content at 2 uM incubated for 24 hrs by Fluo-3AM staining based flow cytometric analysis; format: functional, cell-based
BT-549 [15] = assay: Induction of apoptosis in human BT-549 cells assessed as late apoptotic cells at 2 uM incubated for 24 hrs by Annexin V-PI staining based flow cytometric analysis (reference value: 2.95%); format: functional
MDA-MB-231 [16] = assay: Inhibition of cell migration in human MDA-MB-231 assessed as reduction in wound healing ability at 0 to 2 uM incubated for 48 hrs by Wound healing assay; format: functional, cell-based; conditions: dose 0-2 µM
[17] = Toxicity in female BALB/c mouse xenografted with human MDA-MB-231 cells assessed as effect on pathological changes in heart at 5 to 20 mg/kg, sc by H and E staining based analysis; format: organism-based; conditions: in vivo, dose 5-20 mg/kg
[18] = (§1) Selectivity ratio of IC50 for antiproliferative activity against human MCF-10A cells assessed as inhibition of cell proliferation incubated for 24 hrs by MTT assay to IC50 for antiproliferative activity against human BT-549 cells assessed as inhibition of cell proliferation incubated for 24 hrs by MTT assay; format: toxicity, cell-based; conditions: MCF-10A cells versus BT-549 cells, read-out: Ratio IC50
BT-549 [19] = assay: Induction of apoptosis in human BT-549 cells assessed as upregulation of cleavage of caspase-8 expression at 0.5 to 2 uM incubated for 24 hrs by Western blot analysis; format: functional, cell-based; conditions: dose 0.5-2 µM
BT-549 [20] = assay: Inhibition of tumor sphere formation in human BT-549 cells at 1 uM incubated for 24 hrs by microscopic analysis; format: functional, cell-based
BT-549 [21] = assay: Antiproliferative activity against human BT-549 cells xenografted in female BALB/c mouse model assessed as fold change in upregulation of BAX protein level at 20 mg/kg administered subcutaneously incubated for 24 hrs by Western blot analysis (reference value: 1.00%); format: functional; conditions: route sc
BT-549 [22] = assay: Antiproliferative activity against human BT-549 cells xenografted in female BALB/c mouse model assessed as fold change in inhibition of PKM2 expression at 20 mg/kg administered subcutaneously incubated for 24 hrs by Western blot analysis (reference value: 1.05%); format: functional; conditions: route sc
MDA-MB-231 [23] = assay: Antiproliferative activity against human MDA-MB-231 cells xenografted in female BALB/c mouse model assessed as fold change in inhibition of PKM2 expression at 20 mg/kg administered subcutaneously incubated for 24 hrs by Western blot analysis (reference value: 1.00%); format: functional; conditions: route sc
BT-549 [24] = assay: Induction of apoptosis in human BT-549 cells assessed as early apoptotic cells at 1 uM incubated for 24 hrs by Annexin V-PI staining based flow cytometric analysis (reference value: 0.78%); format: functional
MDA-MB-231 [25] = assay: Inhibition of cell migration in human MDA-MB-231 cells assessed as decrease in MMP-2 level incubated for 24 hrs by Western blot analysis; format: functional, cell-based; conditions: dose 0.5-2 µM
Mitochondrial membrane = assay: Disruption of mitochondrial potential loss in human MDA-MB-231 cells assessed as increase in JC-1 monomers at 1 uM incubated for 24 hrs by JC-1 staining based flow cytometric analysis (Rvb =1.68%); format: cell membranes
MDA-MB-231 [26] = assay: Induction of ER stress in human MDA-MB-231 cells assessed as upregulation of BIP protein level at 1 uM incubated for 24 hrs by DAPI staining based immunofluorescence analysis; format: functional, cell-based
[27] = Antiproliferative activity against human MCF-10A cells assessed as inhibition of cell proliferation incubated for 24 hrs by MTT assay; format: toxicity, cell-based
MDA-MB-231 [28] = assay: Inhibition of glycolysis in human MDA-MB-231 cells assessed as reduction in glucose uptake at 0.5 to 2 uM incubated for 24 hrs followed by 2-NBDG staining based flow cytometric analysis; format: functional, cell-based; conditions: dose 0.5-2 µM
MDA-MB-231 [29] = assay: Inhibition of glycolysis in human MDA-MB-231 cells assessed as reduction in lactate production at 0.5 to 2 uM; format: functional, cell-based; conditions: dose 0.5-2 µM
[30] = as §1, with “48” for “24”; format: toxicity, cell-based; conditions: MCF-10A cells versus BT-549 cells, read-out: Ratio IC50
BT-549 [31] = assay: Antiproliferative activity against human BT-549 cells xenografted in female BALB/c mouse model assessed as fold change in cleavage of caspase-3 level at 5 mg/kg administered subcutaneously incubated for 24 hrs by Western blot analysis (reference value: 1.00%); format: functional; conditions: route sc
[32] = Toxicity in female BALB/c mouse xenografted with human BT-549 cells assessed as effect on body weight at 5 to 20 mg/kg, sc and measured daily; format: organism-based; conditions: in vivo, dose 5-20 mg/kg

Structure (SMILES): CC(C)=CCC/C(C)=C/[C@H]1OC(=O)CC12C[C@H](OC(=O)Cc1ccc(NC(=O)/C=C/c3ccccc3)cc1)C=CC2=O (stereo partly drawn)
- Activity (BT-549 [1]): Active
- Activity (MDA-MB-231 [2]): 15.9%
- fold change (FC) (MDA-MB-231 [3]): 0.44
- Activity (BT-549 [4]): Active
- inhibition (BT-549 [5]): Active
- inhibition (BT-549 [6]): Active
- fold change (FC) (BT-549 [7]): 1.72
- inhibition (MDA-MB-231 [8]): Active
- inhibition (BT-549 [9]): Dose-Dependent Effect
- Activity (MDA-MB-231 [10]): Active
- inhibition (BT-549 [11]): Active
- inhibition (MDA-MB-231 [12]): Dose-Dependent Effect
- inhibition (BT-549 [13]): Active
- Activity (BT-549 [14]): Active
- Activity (BT-549 [15]): 50.1%
- inhibition (MDA-MB-231 [16]): Active
- Activity [17]: Non-Toxic
- selectivity ratio at 24 h [18]: 57.7
- Activity (BT-549 [19]): Active
- inhibition (BT-549 [20]): Active
- fold change (FC) (BT-549 [21]): 2.21
- fold change (FC) (BT-549 [22]): 0.16
- fold change (FC) (MDA-MB-231 [23]): 0.31
- Activity (BT-549 [24]): 3.62%
- inhibition (MDA-MB-231 [25]): Dose-Dependent Effect
- Activity (Mitochondrial membrane): 42.6%
- Activity (MDA-MB-231 [26]): Active
- IC50 at 24 h [27]: 57.1 µM
- inhibition (MDA-MB-231 [28]): Active
- inhibition (MDA-MB-231 [29]): Active
- selectivity ratio at 48 h [30]: 72.7
- fold change (FC) (BT-549 [31]): 1.64
- Activity [32]: Non-Toxic
